{
  "source": "patent US12544372B2",
  "about": "“Methods of treating rheumatoid arthritis, chronic spontaneous urticaria, and systemic lupus erythematosis using an inhibitor of Bruton's tyrosine kinase” (Genentech, Inc., priority 2019, dated 2026)",
  "key": {"CXCL13": {"test_system": "CXCL13", "assay": "RA study biomarker: CXCL13", "assay_type": "in vivo, human"}, "[1]": {"test_system": "patients with refractory chronic spontaneous urticaria", "assay": "Phase II CSU study (Cohorts 1 and 2): UAS7, weekly itch, weekly hives", "assay_type": "in vivo, human", "excerpt": "A Phase II, Multicenter, Randomized, Double-Blind, Placebo-Controlled Pilot and Dose-Ranging Study of Fenebrutinib in Patients with Refractory Chronic Spontaneous Urticaria (CSU)\nThis study was designed to evaluate the efficacy and safety of fenebrutinib compared with placebo as add-on therapy for the treatment of adult patients 18-75 years old who have been diagnosed with CSU and who remain symptomatic despite treatment with H1 antihistamines. Specific objectives and corresponding endpoints for the study are outlined below.\nThis pilot and dose-ranging study is a multicenter, randomized, double-blind, placebo-controlled, parallel-group study of the efficacy and safety of fenebrutinib as add-on therapy for the treatment of adult patients 18-75 years old who have been diagnosed with CSU and who remain symptomatic despite treatment with H1 antihistamines (including doses up to 4 times the approved dose per local treatment guidelines). The study consists of two cohorts. Cohort 1 enrolled 41 patients across multiple sites. After screening, eligible patients were randomly allocated in a ˜2:1 ratio to receive fenebrutinib 200 mg orally (PO) twice daily (BID) (n=28) or matching placebo (n=13) for 8 weeks and maintain stable doses of standard-of-care H1 antihistamine therapy throughout the study. A dose-ranging cohort, Cohort 2, enrolled approximately 120 patients randomly allocated in a 1:1:1:1 ratio received 50 mg PO daily (QD), 150 mg PO QD, 200 mg PO BID of GDC-0853, or placebo, respectively, for 8 weeks while maintaining stable doses of standard-of-care H1 antihistamine therapy throughout the study.\nBoth cohorts consist of three study periods over 14 weeks: (i) a screening period (Day −14 to Day −1), (ii) a treatment period [Day 1 to Day 57 (Week 0 to Week 8)], and (iii) a follow-up period [Day 57 to Day 85 (Week 8 to Week 12)].\nThe primary efficacy endpoint was measured at Week 8 (Day 57). Patients must have maintained stable doses of their pre-randomization H1 antihistamine therapy throughout the treatment period. After completion of the 8-week treatment period, all patients in both cohorts will enter a 4-week safety follow-up period in which no fenebrutinib treatment is given as patients maintain stable doses of their pre-randomization H1 antihistamine therapy.\nThe primary efficacy endpoint was the change in baseline in the UAS7 at Week 8 (Day 57). The change in the UAS7 (Table 9) is a summation of the average daily (a.m./p.m.) scores on the UAS (range: 0-6), which is a composite diary score with numeric severity intensity ratings on a scale of 0-3 (0=none to 3=intense/severe) for two domains: the intensity of the itch and the number of wheals/hives. The UAS is recorded by the patient twice daily (morning and evening) in the patient Urticaria Patient Daily eDiary.\nContinuous longitudinal efficacy endpoints will be analyzed using a mixed model for repeated measures (MMRM) and descriptive statistics as appropriate. Additional model covariates will include baseline UAS7 and its interaction with visit. Missing data will be handled by the model under the missing-at-random assumption without need for imputation.\nThe secondary efficacy measurements are as described above in the “Study Objectives” section of this Example 2, and apply the UAS7 score and the weekly itch score measurement. Weekly itch scores are measured as part of the study patient's Urticaria Patient Daily eDiary."}, "[2]": {"settings": "Cohort 1, 200 mg BID vs placebo"}},
  "note": "Marks after values point to notes of the source that are not given here.",
  "data": [
    {"smiles": "C[C@H]1CN(C2COC2)CCN1c1ccc(Nc2cc(-c3ccnc(N4CCn5c(cc6c5CC(C)(C)C6)C4=O)c3CO)cn(C)c2=O)nc1", "note": "[fenebrutinib, (S)-2-(3′-(hydroxymethyl)-1-methyl-5-((5-(2-methyl-4-(oxetan-3-yl)piperazin-1-yl)pyridin-2-yl)amino)-6-oxo-1,6-dihydro-[3,4′-bipyridin]-2′-yl)-7,7-dimethyl-2,3,4,6,7,8-hexahydro-1H-cyclopenta[4,5]pyrrolo[1,2-a]pyrazin-1-one]", "values": [
      {"measurement": "CXCL13 Reduction as % of Baseline", "setting": "CXCL13; Cohort 1, 50 mg QD, Week 4", "result": 63, "unit": "%*"},
      {"measurement": "CXCL13 Reduction as % of Baseline", "setting": "CXCL13; Cohort 1, 50 mg QD, Week 12", "result": 62, "unit": "%*"},
      {"measurement": "CXCL13 Reduction as % of Baseline", "setting": "CXCL13; Cohort 1, 150 mg QD, Week 4", "result": 65, "unit": "%*"},
      {"measurement": "CXCL13 Reduction as % of Baseline", "setting": "CXCL13; Cohort 1, 150 mg QD, Week 12", "result": 58, "unit": "%*"},
      {"measurement": "CXCL13 Reduction as % of Baseline", "setting": "CXCL13; Cohort 1, 200 mg BID, Week 4", "result": 67, "unit": "%*"},
      {"measurement": "CXCL13 Reduction as % of Baseline", "setting": "CXCL13; Cohort 1, 200 mg BID, Week 12", "result": 62, "unit": "%*"},
      {"measurement": "UAS7 - Change from BL to Week 4, Mean (SD)", "setting": "[1]; Cohort 1, 200 mg BID", "result": "−21.1 (11.3)"},
      {"measurement": "UAS7 - Change from BL to Week 4, Median", "setting": "[1]; Cohort 1, 200 mg BID", "result": "−22.5"},
      {"measurement": "UAS7 - Change from BL to Week 8, Mean (SD)", "setting": "[1]; Cohort 1, 200 mg BID", "result": "−21.6 (11.8)"},
      {"measurement": "UAS7 - Change from BL to Week 8, Median", "setting": "[1]; Cohort 1, 200 mg BID", "result": "−23.0"},
      {"measurement": "Weekly Hive Score - Change from BL to Week 4, Mean (SD)", "setting": "[1]; Cohort 1, 200 mg BID", "result": "−11.6 (6.8)"},
      {"measurement": "Weekly Hive Score - Change from BL to Week 4, Median", "setting": "[1]; Cohort 1, 200 mg BID", "result": "−14.0"},
      {"measurement": "Weekly Hive Score - Change from BL to Week 8, Mean (SD)", "setting": "[1]; Cohort 1, 200 mg BID", "result": "−12.2 (7.1)"},
      {"measurement": "Weekly Hive Score - Change from BL to Week 8, Median", "setting": "[1]; Cohort 1, 200 mg BID", "result": "−14.0"},
      {"measurement": "Weekly Itch Severity - Change from BL to Week 4, Mean (SD)", "setting": "[1]; Cohort 1, 200 mg BID", "result": "−9.5 (5.4)"},
      {"measurement": "Weekly Itch Severity - Change from BL to Week 4, Median", "setting": "[1]; Cohort 1, 200 mg BID", "result": "−9.0"},
      {"measurement": "Weekly Itch Severity - Change from BL to Week 8, Mean (SD)", "setting": "[1]; Cohort 1, 200 mg BID", "result": "−9.4 (5.6)"},
      {"measurement": "Weekly Itch Severity - Change from BL to Week 8, Median", "setting": "[1]; Cohort 1, 200 mg BID", "result": "−9.0"},
      {"measurement": "UAS7 - Change from BL to Week 4, Treatment difference in LS means, 90% CI", "setting": "[1]; [2]", "result": "−12.5 (−18.9, −6.1) 0.002"},
      {"measurement": "UAS7 - Change from BL to Week 8, Treatment difference in LS means, 90% CI", "setting": "[1]; [2]", "result": "−4.3 (−11.3, 2.7) 0.305"},
      {"measurement": "Weekly Hive Score - Change from BL to Week 4, Treatment difference in LS means, 90% CI", "setting": "[1]; [2]", "result": "−7.5 (−11.2, −3.7) 0.002"},
      {"measurement": "Weekly Hive Score - Change from BL to Week 8, Treatment difference in LS means, 90% CI", "setting": "[1]; [2]", "result": "−2.8 (−6.9, 1.4) 0.269"},
      {"measurement": "Weekly Itch Severity - Change from BL to Week 4, Treatment difference in LS means, 90% CI", "setting": "[1]; [2]", "result": "−5.5 (−8.5, −2.6) 0.003"},
      {"measurement": "Weekly Itch Severity - Change from BL to Week 8, Treatment difference in LS means, 90% CI", "setting": "[1]; [2]", "result": "−1.3 (−4.5, 1.8) 0.479"},
      {"measurement": "patients well-controlled (UAS7≤6)", "setting": "[1]; Cohort 1, 200 mg BID, Week 4", "result": 64, "unit": "%"},
      {"measurement": "well-controlled patients, % treatment difference over placebo", "setting": "[1]; Cohort 1, 200 mg BID, Week 4", "result": 48.6, "unit": "%"},
      {"measurement": "patients well-controlled (UAS7≤6)", "setting": "[1]; Cohort 1, 200 mg BID, Week 8", "result": 65, "unit": "%"},
      {"measurement": "well-controlled patients, % treatment difference over placebo", "setting": "[1]; Cohort 1, 200 mg BID, Week 8", "result": 31.9, "unit": "%"},
      {"measurement": "weekly itch scores (treatment difference in LS means)", "setting": "[1]; Cohort 1 and Cohort 2, each treatment group, all comers, Week 8", "result": "reduced weekly itch scores in each group"}
    ]}
  ]
}
